Data from the supplement of paper PMC11451515.

System: NOMO1
Experiment: cell viability relative to DMSO control; higher = less cytotoxic
Settings: 48 h
In short: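 Viability was expressed as a per-plate percentage of DMSO wells, with cell-free wells as background. Leukemia cells (NOMO1 or SEM at 500 cells/well, P12-Ichikawa at 1000 cells/well) were adapted for at least four passages in each medium and seeded in 1536-well plates (5 μl). Library compounds in DMSO were pin-dosed over an 11-point threefold series from 47 μM to 0.79 nM, and CellTiter-Glo One luminescence was read after 48 h at 37°C.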

[1] = HPLM + 10% dialyzed FBS, 0.000781 µM
[2] = HPLM + 10% dialyzed FBS, 0.00234 µM
[3] = HPLM + 10% dialyzed FBS, 0.00702 µM
[4] = HPLM + 10% dialyzed FBS, 0.0211 µM
[5] = HPLM + 10% dialyzed FBS, 0.0632 µM
[6] = HPLM + 10% dialyzed FBS, 0.19 µM
[7] = HPLM + 10% dialyzed FBS, 0.569 µM
[8] = HPLM + 10% dialyzed FBS, 1.71 µM
[9] = HPLM + 10% dialyzed FBS, 5.12 µM
[10] = HPLM + 10% dialyzed FBS, 15.4 µM
[11] = HPLM + 10% dialyzed FBS, 46.1 µM
[12] = RPMI 5 mM glucose + 10% FBS, 0.000781 µM
[13] = RPMI 5 mM glucose + 10% FBS, 0.00234 µM
[14] = RPMI 5 mM glucose + 10% FBS, 0.00702 µM
[15] = RPMI 5 mM glucose + 10% FBS, 0.0211 µM
[16] = RPMI 5 mM glucose + 10% FBS, 0.0632 µM
[17] = RPMI 5 mM glucose + 10% FBS, 0.19 µM
[18] = RPMI 5 mM glucose + 10% FBS, 0.569 µM
[19] = RPMI 5 mM glucose + 10% FBS, 1.71 µM
[20] = RPMI 5 mM glucose + 10% FBS, 5.12 µM
[21] = RPMI 5 mM glucose + 10% FBS, 15.4 µM
[22] = RPMI 5 mM glucose + 10% FBS, 46.1 µM
[23] = RPMI 5 mM glucose + 10% dialyzed FBS, 0.000781 µM
[24] = RPMI 5 mM glucose + 10% dialyzed FBS, 0.00234 µM
[25] = RPMI 5 mM glucose + 10% dialyzed FBS, 0.00702 µM
[26] = RPMI 5 mM glucose + 10% dialyzed FBS, 0.0211 µM
[27] = RPMI 5 mM glucose + 10% dialyzed FBS, 0.0632 µM
[28] = RPMI 5 mM glucose + 10% dialyzed FBS, 0.19 µM
[29] = RPMI 5 mM glucose + 10% dialyzed FBS, 0.569 µM
[30] = RPMI 5 mM glucose + 10% dialyzed FBS, 1.71 µM
[31] = RPMI 5 mM glucose + 10% dialyzed FBS, 5.12 µM
[32] = RPMI 5 mM glucose + 10% dialyzed FBS, 15.4 µM
[33] = RPMI 5 mM glucose + 10% dialyzed FBS, 46.1 µM

Row | SMILES | cell viability [1] | cell viability [2] | cell viability [3] | cell viability [4] | cell viability [5] | cell viability [6] | cell viability [7] | cell viability [8] | cell viability [9] | cell viability [10] | cell viability [11] | cell viability [12] | cell viability [13] | cell viability [14] | cell viability [15] | cell viability [16] | cell viability [17] | cell viability [18] | cell viability [19] | cell viability [20] | cell viability [21] | cell viability [22] | cell viability [23] | cell viability [24] | cell viability [25] | cell viability [26] | cell viability [27] | cell viability [28] | cell viability [29] | cell viability [30] | cell viability [31] | cell viability [32] | cell viability [33]
1 | OC1=C(Cl)C=C(N\C2=C(\C(=O)NC2=O)C3=C(C=CC=C3)[N+]([O-])=O)C=C1 | 100% | 98.3% | 103% | 106% | 120% | 106% | 83.8% | 70% | 68.9% | 56.8% | 60.7% | 94.3% | 106% | 116% | 102% | 99.5% | 95.9% | 94.5% | 95.4% | 86.5% | 69.6% | 10.1% | 90.2% | 98.7% | 102% | 112% | 119% | 116% | 96.4% | 94.2% | 78.6% | 73.9% | 12.1%
2 | Cc1n[nH]c2ccc(-c3cncc(OC[C@@H](N)Cc4ccccc4)c3)cc12 | – | – | – | – | – | – | – | – | – | – | – | 127% | 118% | 113% | 125% | 120% | 113% | 110% | 99.7% | 23.6% | 12.9% | 5.8% | 134% | 124% | 120% | 114% | 133% | 83.5% | 109% | 77.9% | 15.1% | 8.65% | 4.35%
3 | NC(=O)c1nnn(Cc2cc(Cl)c(C(=O)c3ccc(Cl)cc3)c(Cl)c2)c1N | 111% | 134% | 124% | 127% | 120% | 137% | 124% | 135% | 111% | 120% | 78.7% | 121% | 123% | 129% | 124% | 122% | 123% | 123% | 105% | 110% | 114% | 103% | – | – | – | – | – | – | – | – | – | – | –
4 | CC(=O)N(O)CCCCCNC(=O)CCC(=O)N(O)CCCCCNC(=O)CCC(=O)N(O)CCCCCN.C[S+](=O)([O-])O | 90.9% | 83.7% | 81.8% | 32.6% | 34% | 34.6% | 28.3% | 27.2% | 27.7% | 23.6% | 21.5% | 88.8% | 97.4% | 115% | 45.7% | 28.1% | 17.6% | 24.9% | 20.9% | 16.4% | 10.6% | 12.5% | 86% | 105% | 113% | 106% | 79.1% | 26.3% | 26.4% | 21.4% | 23.8% | 18.2% | 17.4%
5 | COc1cc(C[C@@H](CO)[C@H](CO)Cc2ccc(O)c(OC)c2)ccc1O | 97.7% | 99.3% | 97.2% | 123% | 112% | 122% | 126% | 108% | 107% | 101% | 104% | 107% | 118% | 101% | 111% | 103% | 108% | 106% | 97.2% | 104% | 94.4% | 102% | 95.8% | 111% | 113% | 107% | 118% | 110% | 107% | 107% | 104% | 103% | 112%
6 | COc1cccc(OC)c1-c1cc(C(=O)NC2(C(=O)O)C3CC4CC(C3)CC2C4)nn1-c1ccnc2cc(Cl)ccc12 (centres undefined) | 129% | 111% | 125% | 135% | 119% | 123% | 102% | 118% | 116% | 111% | 98.9% | 102% | 99.6% | 97.9% | 109% | 99.7% | 100% | 104% | 97.3% | 104% | 107% | 90.8% | 104% | 116% | 108% | 109% | 113% | 104% | 101% | 95.2% | 108% | 91% | 105%
7 | CN1CCN(CC1)C2=CC3=C([NH]C(=N3)C/4=C(\N)C5=C(F)C=CC=C5NC4=O)C=C2 | 104% | 99.7% | 98.5% | 97.4% | 96.3% | 102% | 97.2% | 93.9% | 60.8% | 49.7% | 51.1% | 101% | 107% | 96.7% | 107% | 111% | 109% | 107% | 104% | 87.9% | 68.3% | 58.6% | 92.1% | 99.9% | 115% | 96.1% | 99% | 102% | 100% | 92.3% | 79.7% | 63.1% | 53.4%
